Active and inactive are the calls of the source. How the calls were made is not given here.
Test system: not listed separately
Assay: viability loss in LCL cells – cell-based, plate reader, dry powder, set 2, cytotoxicity control, dose response (AID 624367)
Conditions: Lymphoblastoid cell line (LCL) cytotoxicity, plate reader; at 30 µM (top of the series)

Q: Which activity change, negative = cytotoxicity does the source give for `CN(C)C(=O)c1cccc(-c2cccc(-c3nc(C(=O)NCc4ccccc4)cc4c3[C@@H](CCO)N([S@](=O)C(C)(C)C)C4)c2)c1` here?
A: The activity change, negative = cytotoxicity was 8.17% (inactive).

Same assay, conditions: Lymphoblastoid cell line (LCL) cytotoxicity, plate reader; at 35 µM (top of the series)

Q: With `Cc1noc(C)c1S(=O)(=O)Nc1ccc2c(c1)C(=O)N([C@H](C)CO)C[C@H](C)[C@H](CN(C)Cc1ccc(C(F)(F)F)cc1)OCCCC[C@@H](C)O2` as the molecule, how does the activity change, negative = cytotoxicity read?
A: Its activity change, negative = cytotoxicity is -2.12% (inactive).

Q: For `C[C@@H](NC(=O)C[C@H]1C[C@@H]2c3cc(NC(=O)c4cccnc4)ccc3O[C@@H]2[C@@H](CO)O1)c1ccccc1`, which activity change, negative = cytotoxicity is on record?
A: Its activity change, negative = cytotoxicity is -0.579% (inactive).

Q: Which activity change, negative = cytotoxicity does the source give for `Cc1noc(C)c1S(=O)(=O)Nc1ccc2c(c1)C(=O)N([C@@H](C)CO)C[C@H](C)[C@@H](CN(C)Cc1ccc(C(F)(F)F)cc1)OCCCC[C@H](C)O2` here?
A: The activity change, negative = cytotoxicity was -1.76% (inactive).

Q: Which activity change, negative = cytotoxicity does the source give for `CC(C)NC(=O)N1Cc2cc(C(=O)NC3Cc4ccccc4C3)nc(-c3cccc(-c4cccnc4)c3)c2[C@@H]1CCO` here?
A: Its activity change, negative = cytotoxicity is 0.066% (inactive).

Q: Which activity change, negative = cytotoxicity does the source give for `C[C@@H]1CN([C@@H](C)CO)C(=O)Cc2cc(NC(=O)Cc3ccccc3)ccc2O[C@H]1CN(C)Cc1ccc(C(F)(F)F)cc1` here?
A: Its activity change, negative = cytotoxicity is -7.42% (inactive).

Q: Which activity change, negative = cytotoxicity does the source give for `C[C@H](CO)N1C[C@H](C)[C@H](CN(C)Cc2ccc(Oc3ccccc3)cc2)Oc2ccc(NC(=O)CCCN(C)C)cc2C1=O` here?
A: The activity change, negative = cytotoxicity was -0.446% (inactive).

Q: For `C[C@@H](NC(=O)C[C@H]1C=C[C@@H](NC(=O)Cc2ccccn2)[C@@H](CO)O1)c1ccccc1`, which activity change, negative = cytotoxicity is on record?
A: The activity change, negative = cytotoxicity was -7.23% (inactive).

Q: For `C[C@@H]1CN([C@H](C)CO)C(=O)Cc2cc(NC(=O)Cc3ccccc3)ccc2O[C@H]1CN(C)Cc1ccc(C(F)(F)F)cc1`, which activity change, negative = cytotoxicity is on record?
A: Its activity change, negative = cytotoxicity is 3.94% (inactive).

Q: Which activity change, negative = cytotoxicity does the source give for `O=C(C[C@H]1C[C@@H]2c3cc(NC(=O)c4ccc5c(c4)OCO5)ccc3O[C@@H]2[C@@H](CO)O1)NCc1ccc(Oc2ccccc2)cc1` here?
A: Its activity change, negative = cytotoxicity is -5.15% (inactive).

Q: Which activity change, negative = cytotoxicity does the source give for `Cc1noc(C)c1S(=O)(=O)Nc1ccc2c(c1)C(=O)N([C@@H](C)CO)C[C@H](C)[C@@H](CN(C)Cc1ccc(C(F)(F)F)cc1)OCCCC[C@@H](C)O2` here?
A: The activity change, negative = cytotoxicity was -4.06% (inactive).

Q: With `O=C(C[C@@H]1C[C@H]2c3cc(NS(=O)(=O)c4ccc(F)cc4)ccc3O[C@H]2[C@H](CO)O1)NCc1ccc(Oc2ccccc2)cc1` as the molecule, how does the activity change, negative = cytotoxicity read?
A: The activity change, negative = cytotoxicity was -1.34% (inactive).

Q: With `N#C[C@H]1[C@H](c2ccc(C#Cc3ccccc3F)cc2)[C@@H](CO)N1C(=O)c1cccnc1` as the molecule, how does the activity change, negative = cytotoxicity read?
A: Its activity change, negative = cytotoxicity is 3.23% (inactive).

Q: With `C[C@@H]1CN([C@@H](C)CO)C(=O)c2c(c3ccccc3n2C)-c2ccccc2CO[C@@H]1CN(C)C(=O)Nc1ccc(F)cc1` as the molecule, how does the activity change, negative = cytotoxicity read?
A: Its activity change, negative = cytotoxicity is -5.86% (inactive).

Q: Which activity change, negative = cytotoxicity does the source give for `N#C[C@H]1N[C@H](CO)[C@H]1c1ccc(C#Cc2ccccc2F)cc1` here?
A: The activity change, negative = cytotoxicity was -8.35% (inactive).

Q: For `CC(C)c1ccc(NC(=O)C[C@H]2CC[C@H]3[C@@H](COc4ccc(NC(=O)Nc5ccc(F)c(F)c5)cc4C(=O)N3C)O2)cc1`, which activity change, negative = cytotoxicity is on record?
A: Its activity change, negative = cytotoxicity is -0.979% (inactive).

Q: With `CN(C)C(=O)c1ccc(-c2cccc(-c3nc(C(=O)NCc4ccccc4)cc4c3[C@@H](CCO)N([S@](=O)C(C)(C)C)C4)c2)cc1` as the molecule, how does the activity change, negative = cytotoxicity read?
A: The activity change, negative = cytotoxicity was -1.5% (inactive).

Q: For `C[C@H](NC(=O)C[C@H]1C=C[C@H](NC(=O)Cc2ccccn2)[C@@H](CO)O1)c1ccccc1`, which activity change, negative = cytotoxicity is on record?
A: Its activity change, negative = cytotoxicity is 0.993% (inactive).

Q: For `C[C@H](NC(=O)C[C@H]1C=C[C@@H](NC(=O)Cc2ccccn2)[C@H](CO)O1)c1ccccc1`, which activity change, negative = cytotoxicity is on record?
A: The activity change, negative = cytotoxicity was 9.63% (inactive).

Q: For `COc1cccc(S(=O)(=O)N(C)C[C@@H]2Oc3cc(C4=CCCCC4)ccc3S(=O)(=O)N([C@@H](C)CO)C[C@H]2C)c1`, which activity change, negative = cytotoxicity is on record?
A: The activity change, negative = cytotoxicity was 0.436% (inactive).

Q: With `C[C@H](CO)N1C[C@H](C)[C@@H](CN(C)C(=O)Nc2ccc(F)cc2)OCc2ccccc2-c2c(n(C)c3ccccc23)C1=O` as the molecule, how does the activity change, negative = cytotoxicity read?
A: The activity change, negative = cytotoxicity was -2.81% (inactive).

Q: Which activity change, negative = cytotoxicity does the source give for `CO[C@H]1CN(C)C(=O)c2ccc(NC(=O)C3CC3)cc2OC[C@H](C)N(C(=O)c2ccccn2)C[C@H]1C` here?
A: The activity change, negative = cytotoxicity was -0.57% (inactive).

Q: For `COc1ccccc1CNC(=O)C[C@H]1C[C@@H]2c3cc(NC(=O)CN(C)C)ccc3O[C@@H]2[C@@H](CO)O1`, which activity change, negative = cytotoxicity is on record?
A: The activity change, negative = cytotoxicity was 2.15% (inactive).

Q: With `C[C@@H](NC(=O)C[C@@H]1C=C[C@H](NC(=O)Cc2ccccn2)[C@H](CO)O1)c1ccccc1` as the molecule, how does the activity change, negative = cytotoxicity read?
A: The activity change, negative = cytotoxicity was 6.45% (inactive).

Q: For `COc1ccccc1C#Cc1ccc2c(c1)O[C@H](CN(C)Cc1cccnc1)[C@@H](C)CN([C@@H](C)CO)S2(=O)=O`, which activity change, negative = cytotoxicity is on record?
A: Its activity change, negative = cytotoxicity is -6.79% (inactive).

Q: With `CCC(=O)N1Cc2cc(C(=O)Nc3nccs3)nc(-c3cccc(-c4ccccc4OC)c3)c2[C@H]1CCO` as the molecule, how does the activity change, negative = cytotoxicity read?
A: Its activity change, negative = cytotoxicity is -2.48% (inactive).

Q: Which activity change, negative = cytotoxicity does the source give for `Cc1noc(C)c1S(=O)(=O)Nc1ccc2c(c1)C(=O)N([C@@H](C)CO)C[C@@H](C)[C@@H](CN(C)Cc1ccc(C(F)(F)F)cc1)OCCCC[C@@H](C)O2` here?
A: Its activity change, negative = cytotoxicity is -5.16% (inactive).

Q: For `C[C@H](CO)N1C[C@H](C)[C@@H](CN(C)S(=O)(=O)c2cccc(F)c2)Oc2ncc(C#CC3CCCCC3)cc2C1=O`, which activity change, negative = cytotoxicity is on record?
A: The activity change, negative = cytotoxicity was 4.17% (inactive).

Q: For `COc1ccc(-c2cccc(-c3nc(C(=O)NCC(F)(F)F)cc4c3[C@H](CCO)N([S@@](=O)C(C)(C)C)C4)c2)cc1`, which activity change, negative = cytotoxicity is on record?
A: Its activity change, negative = cytotoxicity is -13.3% (inactive).

Q: Which activity change, negative = cytotoxicity does the source give for `O=C(Cc1ccccn1)NCC[C@@H]1CC[C@H](NC(=O)Nc2ccc(Cl)cc2)[C@@H](CO)O1` here?
A: Its activity change, negative = cytotoxicity is 6.35% (inactive).

Test system: Lymphoblastoid cell line (LCL) cytotoxicity, plate reader
Assay: as above
Conditions: not given

Q: Which AC35 does the source give for `O=C(C[C@H]1C[C@H]2c3cc(NC(=O)c4ccc5c(c4)OCO5)ccc3O[C@H]2[C@H](CO)O1)NCc1ccc(Oc2ccccc2)cc1` here?
A: Its AC35 is 33.8 µM.

Q: With `O=C(C[C@@H]1C[C@@H]2c3cc(NS(=O)(=O)c4ccc(F)cc4)ccc3O[C@@H]2[C@@H](CO)O1)NCc1ccc(Oc2ccccc2)cc1` as the molecule, how does the AC35 read?
A: Its AC35 is 22.2 µM.

Q: For `O=C(Nc1ccc(C(F)(F)F)cc1)Nc1ccc2c(c1)[C@@H]1C[C@H](CC(=O)N3CCc4ccccc4C3)O[C@H](CO)[C@@H]1O2`, which AC35 is on record?
A: The AC35 was 36.7 µM.

Q: Which AC35 does the source give for `CN(C)c1ccc2c(c1)[C@@H]1C[C@H](CC(=O)NCc3ccc(Oc4ccccc4)cc3)O[C@@H](CO)[C@@H]1O2` here?
A: Its AC35 is 30.4 µM.

Q: Which AC35 does the source give for `O=C(C[C@@H]1C[C@@H]2c3cc(NC(=O)c4ccc5c(c4)OCO5)ccc3O[C@@H]2[C@@H](CO)O1)NCc1ccc(Oc2ccccc2)cc1` here?
A: The AC35 was 16 µM.

Q: With `O=C(C[C@H]1C[C@@H]2c3cc(NS(=O)(=O)c4ccc(F)cc4)ccc3O[C@@H]2[C@@H](CO)O1)NCc1ccc(Oc2ccccc2)cc1` as the molecule, how does the AC35 read?
A: The AC35 was 34.7 µM.

— PubChem BioAssay AID624367 (Broad Institute, 2012)
